Assay results taken from US9090593B2, “Bicyclic compounds as Pim inhibitors” (AMGEN INC., priority 2010, dated 2015).

What was measured:
[1] = target: T1, full length recombinant Pim-1 protein (Homo sapiens, UniProt P11309); test: Pim-1 enzyme assay (HTRF, phosphorylation of biotinylated-BAD (S112) peptide); type: biochemical; conditions: read-out: Pim_1_IC50
T1 construct: by full length recombinant Pim-1, Pim-2, or Pim-3 protein; hexahistidine tag followed by a thrombin cleavage site (N); made in house; host or cells: Sf9 (baculovirus) or E. coli (pET28)
T1 sequence (P11309 whole entry): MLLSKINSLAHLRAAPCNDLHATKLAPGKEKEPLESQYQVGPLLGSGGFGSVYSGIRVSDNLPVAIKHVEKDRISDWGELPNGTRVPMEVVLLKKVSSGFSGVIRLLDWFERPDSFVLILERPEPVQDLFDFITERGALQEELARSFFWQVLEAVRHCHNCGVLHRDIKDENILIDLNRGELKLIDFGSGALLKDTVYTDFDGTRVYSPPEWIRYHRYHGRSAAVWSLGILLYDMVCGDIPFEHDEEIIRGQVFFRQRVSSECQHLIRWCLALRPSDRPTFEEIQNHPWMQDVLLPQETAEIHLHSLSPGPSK
Source text: (§1) These cDNAs were used as templates in PCR reactions to produce full-length DNA clones of the PIMs. […] PCR products were digested with […] and EcoRI for Pim-1 and BamHI and EcoRI for Pim-2 and ligated into a modified baculovirus transfer vector (pFastBac1) cleaved with BamHI and EcoRI. For bacterial expression, the same cleaved PCR products encoding Pim-1 or Pim-2 were ligated into a modified E. coli expression vector pET28(a) cleaved with BamHI and EcoRI Amino-terminal hexahistidine tags followed by a thrombin cleavage site were previously added to the vectors using standard methods of molecular biology. Recombinant baculoviruses expressing Pim-1 or Pim-2 were made using standard methods (Fastbac manual, Invitrogen, Carlsbad, Calif.). Infection of Sf9 cells was done at an m.o.i. of greater than 5 for 24-48 h. Cells were harvested by centrifugation and frozen at −80 C. For E. coli expression, cells carrying pET28-His6-Th-Pim-1 or pET28-His6-Th-Pim-2 were picked from a single colony and grown o/n in LB media. The o/n culture was used to inoculate a 2 liter flask with 500 mL media. This was grown o/n and used to inoculate 15-20 liters of Terrific Broth in a New Brunswick Scientific fermentor. The E. coli were grown at 37° C. to and OD600>1.6. The temperature was dropped to 18° C. and o/n expression was induced with 0.5 mM IPTG. Cells were harvested by centrifugation and frozen at −80° C.
(§2) This step was repeated 3× and the resin was transferred to a 2.5 cm glass column. Ten column volumes of wash buffer (0.05 M HEPES, pH 8.0, 0.1 M NaCl, 0.01 M 2-mercaptoethanol, 10% (w/v) glycerol) were applied to the resin followed by 10 column volumes of elution buffer (0.05 M HEPES, pH 8.0, 0.25 M NaCl, 0.01 M 2-mercaptoethanol, 10% (w/v) glycerol, 0.1 M imidazole). Fractions were analyzed by SDS-PAGE and those containing the protein of interest were pooled and concentrated. The concentrated protein was applied to an Amersham Superdex 75 (XK 26/60) column equilibrated in 0.025 M Tris-HCl, pH 7.5, 0.1 M NaCl, 0.01 M 2-mercaptoethanol, 10% (w/v) glycerol. […] Fractions containing the monomeric protein of interest were pooled, concentrated to ˜2 mg/mL, and stored at −80° C.
(§3) The phosphorylation of biotinylated-BAD (S112) peptide by full length recombinant Pim-1, Pim-2, or Pim-3 protein was detected with streptavidin:Allophycocyanin (APC) conjugate and a europium (Eu) labeled antibody directed against phosphorylated-BAD (S112). […] The fluorescence is directly proportional to the amount of phosphorylated BAD peptide present in the reaction.
(§4) A reference compound was included on each assay plate in order to validate that plate; on one plate of every assay run, two additional reference compounds were included.
(§5) The final buffer conditions were as follows: 60 mM Hepes, pH 7.0, 0.05% BSA, 2 mM DTT. […] The reaction was stopped by the addition of 3 mM EDTA, and fluorescence was measured by an HTRF® Rubystar microplate reader. For each plate, percent of control (POC) values were calculated for each well. Values for the IC50 IP were estimated using a standard 4-parameter logistic model.

[2] = target: T2, full length recombinant Pim-2 protein (Homo sapiens, UniProt Q9P1W9); test: Pim-2 enzyme assay (HTRF, phosphorylation of biotinylated-BAD (S112) peptide); type: biochemical; conditions: read-out: Pim2_IC50
T2 construct: by full length recombinant Pim-1, Pim-2, or Pim-3 protein; hexahistidine tag followed by a thrombin cleavage site (N); made in house; host or cells: Sf9 (baculovirus) or E. coli (pET28)
T2 sequence (Q9P1W9 whole entry): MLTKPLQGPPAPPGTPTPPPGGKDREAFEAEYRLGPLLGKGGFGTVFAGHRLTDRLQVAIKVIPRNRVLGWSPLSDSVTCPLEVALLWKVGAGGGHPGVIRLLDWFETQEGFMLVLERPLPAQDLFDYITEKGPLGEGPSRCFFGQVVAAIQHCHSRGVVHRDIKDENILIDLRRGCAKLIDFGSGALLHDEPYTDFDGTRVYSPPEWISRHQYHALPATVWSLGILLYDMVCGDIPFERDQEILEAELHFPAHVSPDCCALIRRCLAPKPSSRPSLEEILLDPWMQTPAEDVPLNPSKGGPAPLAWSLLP
Source text: as §1, §2, §3, §4, §5

IC50 [1]	IC50 [2]	Structure (SMILES)
839 nM	> 1000 nM	CN(C)C(=O)c1ccc2[nH]nc(-c3ccnc(N4CCC(N)CC4)n3)c2c1 [Example 284, 3-(2-(4-aminopiperidin-1-yl)pyrimidin-4-yl)-N,N-dimethyl-1H-indazole-5-carboxamide]
20 nM	67 nM	CN(C)c1nc(-c2n[nH]c3ccc(Nc4c(F)cccc4F)cc23)cc(=O)[nH]1 [Example 285, 6-(5-((2,6-difluorophenyl)amino)-1H-indazol-3-yl)-2-(dimethylamino) pyrimidin-4(3H)-one]
581 nM	> 1000 nM	COc1cnnc(-c2c[nH]c3ccc(-c4ccccc4F)nc23)c1 [Example 286, 5-(2-fluorophenyl)-3-(5-methoxypyridazin-3-yl)-1H-pyrrolo[3,2-b]pyridine]
364 nM	968 nM	NC1CCN(c2cc(-c3c[nH]c4ccc(-c5ccccc5F)nc34)nc(O)n2)CC1 [Example 288, 4-(4-aminopiperidin-1-yl)-6-(5-(2-fluorophenyl)-1H-pyrrolo[3,2-b]pyridin-3-yl)pyrimidin-2-ol]
34 nM	75 nM	N#Cc1cc(-c2ccc3[nH]cc(-c4cncc(O[C@@H]5CCCNC5)n4)c3c2)ccc1F [Example 295]
37 nM	55 nM	N#Cc1ccc(-c2ccc3[nH]cc(-c4cncc(O[C@@H]5CCCNC5)n4)c3c2)cc1F [Example 296]
31 nM	234 nM	c1cc(OC2CCCC2)nc(-c2ccc3[nH]cc(-c4cncc(O[C@@H]5CCCNC5)n4)c3c2)c1 [Example 298]
42 nM	115 nM	c1cnn(-c2cnc(-c3ccc4[nH]cc(-c5cncc(O[C@@H]6CCCNC6)n5)c4c3)cn2)c1 [Example 300]
52 nM	619 nM	CC1CCN(c2cccc(-c3ccc4[nH]cc(-c5cncc(O[C@@H]6CCCNC6)n5)c4c3)n2)CC1 [Example 304]
234 nM	515 nM	CCNC(=O)c1ccc(C)c(-c2ccc3[nH]cc(-c4cncc(O[C@@H]5CCCNC5)n4)c3c2)c1 [Example 313]
288 nM	428 nM	Cc1ccc(C(=O)NC2CCC2)cc1-c1ccc2[nH]cc(-c3cncc(O[C@@H]4CCCNC4)n3)c2c1 [Example 314]
53 nM	297 nM	COc1ccc(Cl)cc1-c1ccc2[nH]cc(-c3cncc(O[C@@H]4CCCNC4)n3)c2c1 [Example 317]
35 nM	347 nM	c1cc2[nH]cc(-c3cncc(O[C@@H]4CCCNC4)n3)c2cc1-c1cncc(OC2CCCC2)n1 [Example 318]
24 nM	68 nM	CN(C)c1cnc(-c2ccc3[nH]cc(-c4cncc(O[C@@H]5CCCNC5)n4)c3c2)cn1 [Example 319]
31 nM	99 nM	CC(C)c1ccc(-c2ccc3[nH]cc(-c4cncc(O[C@@H]5CCCNC5)n4)c3c2)cc1 [Example 322]
21 nM	46 nM	O=C(O)c1cccc(-c2ccc3[nH]cc(-c4cncc(O[C@@H]5CCCNC5)n4)c3c2)c1 [Example 325]
28 nM	141 nM	COc1ncccc1-c1ccc2[nH]cc(-c3cncc(O[C@@H]4CCCNC4)n3)c2c1 [Example 328]
83 nM	514 nM	COc1ccc(OC)c(-c2ccc3[nH]cc(-c4cncc(O[C@@H]5CCCNC5)n4)c3c2)c1 [Example 329]
54 nM	268 nM	Cc1cccc(-c2ccc3[nH]cc(-c4cncc(O[C@@H]5CCCNC5)n4)c3c2)c1C [Example 330]
43 nM	156 nM	CC(C)Cc1ccc(-c2ccc3[nH]cc(-c4cncc(O[C@@H]5CCCNC5)n4)c3c2)cc1 [Example 332]
72 nM	149 nM	CS(=O)(=O)Nc1cc(-c2ccc3[nH]cc(-c4cncc(O[C@@H]5CCCNC5)n4)c3c2)cnc1Cl [Example 334]
56 nM	592 nM	Nc1ccc(Oc2ncccc2-c2ccc3[nH]cc(-c4cncc(O[C@@H]5CCCNC5)n4)c3c2)cc1 [Example 337]
42 nM	260 nM	c1cc2[nH]cc(-c3cncc(O[C@@H]4CCCNC4)n3)c2cc1-c1cncc(C2CCCN2)c1 (some centres unmarked) [Example 340]

IC50 [1]	IC50 [2]	Structure (SMILES)
159 nM	> 1000 nM	COc1cc(C#N)c(-c2ccc3[nH]cc(-c4cncc(O[C@@H]5CCCNC5)n4)c3c2)cc1OC(C)C [Example 342]
105 nM	363 nM	COc1cc(C#N)cc(-c2ccc3[nH]cc(-c4cncc(O[C@@H]5CCCNC5)n4)c3c2)c1OC [Example 346]
364 nM	> 1000 nM	CCCOc1c(OC)cc(C#N)cc1-c1ccc2[nH]cc(-c3cncc(O[C@@H]4CCCNC4)n3)c2c1 [Example 348]
30 nM	290 nM	CC(=O)Nc1cc(-c2ccc3[nH]cc(-c4cncc(O[C@@H]5CCCNC5)n4)c3c2)cc(C(F)(F)F)c1 [Example 349]
30 nM	133 nM	CC(C)Oc1ccc(-c2ccc3[nH]cc(-c4cncc(O[C@@H]5CCCNC5)n4)c3c2)cc1C#N [Example 352]
159 nM	889 nM	Cc1ccc(C(F)(F)F)cc1-c1ccc2[nH]cc(-c3cncc(O[C@@H]4CCCNC4)n3)c2c1 [Example 353]
834 nM	> 1000 nM	COc1cc(C#N)cc(-c2ccc3[nH]cc(-c4cncc(O[C@@H]5CCCNC5)n4)c3c2)c1OC(C)C [Example 354]
57 nM	253 nM	FC(F)(F)COc1cncc(-c2n[nH]c3ccc(-c4cncc(C5CC5)n4)cc23)n1 [Example 363]
126 nM	> 1000 nM	c1cc(C2CC2)nc(-c2ccc3[nH]cc(-c4cncc(C5CC5)n4)c3c2)n1 [Example 370]
26 nM	113 nM	c1cc(C2CC2)nc(-c2c[nH]c3ccc(-c4cncc(C5CC5)n4)cc23)n1 [Example 371]
75 nM	243 nM	Cn1nccc1-c1ccc2[nH]nc(-c3cncc(O[C@@H]4CCCNC4)n3)c2c1 [Example 375]
21 nM	275 nM	COc1cncc(-c2n[nH]c3ccc(-c4nccc(N5CCOC[C@@H]5C)n4)cc23)n1 [Example 376]
55 nM	231 nM	COc1cncc(-c2n[nH]c3ccc(-c4nccc(C(C)C)n4)cc23)n1 [Example 377]
627 nM	> 1000 nM	COc1cncc(-c2n[nH]c3ccc(-c4cc(C(F)(F)F)ccn4)cc23)n1 [Example 378]
67 nM	> 1000 nM	CC(C)Oc1cncc(-c2n[nH]c3ccc(-c4nccc(N5CCOC[C@@H]5C)n4)cc23)n1 [Example 380]
50 nM	335 nM	COc1cncc(-c2n[nH]c3ccc(-c4nccc(NC5CC5)n4)cc23)n1 [Example 382]
56 nM	457 nM	FCCOc1cncc(-c2n[nH]c3ccc(-c4nccc(C5CC5)n4)cc23)n1 [Example 385]
93 nM	230 nM	CC(C)Oc1cncc(-c2n[nH]c3ccc(-c4cnn(C(C)C)c4)cc23)n1 [Example 387]
116 nM	124 nM	COc1cncc(-c2n[nH]c3ccc(-c4cnn(C(C)C)c4)cc23)n1 [Example 388]
173 nM	200 nM	O=C(NC1CC1)c1ccc(F)c(-c2ccc3[nH]nc(-c4cncc(OCCF)n4)c3c2)c1 [Example 389]
119 nM	241 nM	NC(=O)c1ccc(F)c(-c2ccc3[nH]nc(-c4cncc(OCCF)n4)c3c2)c1 [Example 390]
> 1000 nM	> 1000 nM	c1cc2[nH]nc(-c3cncc(O[C@@H]4CNCCC45CC5)n3)c2cc1N1CCOCC1 [Example 399]
30 nM	58 nM	C[C@@H]1CN(c2ccc3[nH]nc(-c4cncc(O[C@H]5CNCCC56CC6)n4)c3c2)CCO1 [Example 401]
